# From BindingDB's records for doi:10.3109/14756369909030324 (University of Catania, 1999)
# pIC50: −log10 of the molar value.
# Target: T1, Amine oxidase [flavin-containing] B (Rattus norvegicus, UniProt P19643)
# T1 sequence (P19643 whole entry): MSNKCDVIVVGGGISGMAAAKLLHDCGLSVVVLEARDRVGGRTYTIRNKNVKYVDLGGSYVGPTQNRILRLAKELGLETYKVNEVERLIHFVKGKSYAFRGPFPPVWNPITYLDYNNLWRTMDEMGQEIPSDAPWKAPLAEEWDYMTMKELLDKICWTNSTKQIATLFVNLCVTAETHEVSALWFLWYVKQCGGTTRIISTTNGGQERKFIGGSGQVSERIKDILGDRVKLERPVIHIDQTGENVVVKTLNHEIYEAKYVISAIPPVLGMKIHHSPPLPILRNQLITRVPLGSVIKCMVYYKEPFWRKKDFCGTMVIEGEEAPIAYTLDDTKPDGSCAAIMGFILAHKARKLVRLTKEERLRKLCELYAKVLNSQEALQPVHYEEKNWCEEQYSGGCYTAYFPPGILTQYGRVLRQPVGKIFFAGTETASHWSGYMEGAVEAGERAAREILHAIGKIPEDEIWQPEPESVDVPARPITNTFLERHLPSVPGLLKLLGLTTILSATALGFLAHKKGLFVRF
# Assay: Enzyme Assay
# Settings: 37 °C
# Experimental: MAO-B activity was measured by the spectrofluorimetric method of Morinan and Garratt.
row,SMILES,pIC50
1,"CCN(CC)CCC(=O)c1sc(NC)nc1C [Thiazolyl derivative, 1]",4.08
2,"O=C(CN1CCCCC1)Nc1nc(-c2ccccc2)cs1 [Thiazolyl derivative, 9]",4.04
3,"COc1ccc(-c2csc(NC(=O)CN3CCCCC3)n2)cc1 [Thiazolyl derivative, 10]",3.39
4,"COc1ccc(-c2csc(NC(=O)CCN3CCCCC3)n2)cc1 [Thiazolyl derivative, 11]",3.50

# Compounds with a higher pIC50, results first:
row,pIC50,SMILES
1,5.12,"CCN(CC)CCC(=O)c1sc(-c2ccc(C)cc2)nc1C [Thiazolyl derivative, 2]"
2,4.37,"Cc1nc(-c2ccccc2)sc1C(=O)CCN1CCCCC1 [Thiazolyl derivative, 3]"
3,5.11,"Cc1nc(-c2ccccc2)sc1C(=O)CCN1CCOCC1 [Thiazolyl derivative, 4]"
